Test results published in patent publication US20020052296A1, “Herbicidal synergistic combination of a dihydrobenzothiophene compound and a photosystem II inhibitor” (Intellectual Property Department, BASF Aktiengesellschaft, priority 2000, published 2002).

What was measured:
Settings in all cases: 18 days after treatment
PANDI (Fall panicum) = assay: Greenhouse postemergence herbicidal evaluation, % weed control; format: in vivo, Panicum dichotomiflorum
Method: (§1) In the following examples, synergism for two-way combinations is determined by the Colby1 method, i.e. the expected (or predicted) response of the combination is calculated by taking the product of the observed response for each individual component of the combination when applied alone divided by 100 and subtracting this value from the sum of the observed response for each component when applied alone. Synergism of the combination is then determined by comparing the observed response of the combination to the expected (or predicted) response as calculated from the observed responses of each individual component alone. If the observed response of the combination is greater than the expected (or predicted) response then the combination is said to be synergistic and falls within the definition of synergistic effect as previously defined.
(§2) In this evaluation, seedlings of the plant species listed below are grown in Metromix® soil in jiffy flats for about two weeks, to the 2-3 leaf growth stage. The test compounds are dispersed in water containing 1.0% Sunit II, a methylated seed oil of Agsco, Inc., and applied to the plants through a spray nozzle operating at 40 psi for a predetermined time so as to obtain a range of application rates of about 3.0 g/ha to 250 g/ha. Each treatment is replicated 3 times. After spraying, the plants are placed on greenhouse benches and are cared for in accordance with conventional greenhouse procedures. Eighteen days after treatment, the seedling plants are examined and the % weed control as compared to the untreated check is recorded.
(§3) For replicated treatments, the data are averaged. The Colby method of analysis is used to determine the resultant biological effect of the combination treatment as compared to the biological effect of each component when applied alone. In Tables I and II, obs designates observed and exp designates expected.

DIGSA (Crabgrass, large) = assay: as above; format: in vivo, Digitaria sanguinalis
Method: as §1, §2, §3

ERBVI (Cupgrass, woolly) = assay: as above; format: in vivo, Eriochloa villosa
Method: as §1, §2, §3

[1] = tested on: BRAPP (Signalgrass, broadleaf); assay: as above; format: in vivo, Brachiaria platyphylla
Method: as §1, §2, §3

ECHCG (Barnyardgrass) = assay: as above; format: in vivo, Echinochloa crus-galli
Method: as §1, §2, §3

SORHA (Johnsongrass) = assay: as above; format: in vivo, Sorghum halepense
Method: as §1, §2, §3

SORBI (Shattercane) = assay: as above; format: in vivo, Sorghum bicolor
Method: as §1, §2, §3

AGRRE (Quackgrass) = assay: as above; format: in vivo, Elytrigia repens
Method: as §1, §2, §3

[2] = tested on: PANMI (Millet, wild proso); assay: as above; format: in vivo, Panicum miliaceum
Method: as §1, §2, §3

SETVI (Foxtail, green) = assay: as above; format: in vivo, Setaria viridis
Method: as §1, §2, §3

SETFA (Foxtail, giant) = assay: as above; format: in vivo, Setaria faberi
Method: as §1, §2, §3

CASOB (Sicklepod) = assay: as above; format: in vivo, Senna obtusifolia
Method: as §1, §2, §3

ZEAMX (Corn) = assay: Greenhouse postemergence herbicidal evaluation, crop response; format: in vivo, Zea mays
Method: as §1, §2, §3

Atrazine [reference compound]
% WEED CONTROL PANDI Obs (PANDI (Fall panicum); 250 g/ha alone): 5% | % WEED CONTROL DIGSA Obs (DIGSA (Crabgrass, large); 250 g/ha alone): 15% | % WEED CONTROL ERBVI Obs (ERBVI (Cupgrass, woolly); 250 g/ha alone): 10% | % WEED CONTROL BRAPP Obs ([1]; 250 g/ha alone): 20% | % WEED CONTROL ECHCG Obs (ECHCG (Barnyardgrass); 250 g/ha alone): 85% | % WEED CONTROL SORHA Obs (SORHA (Johnsongrass); 250 g/ha alone): 0% | % WEED CONTROL SORBI Obs (SORBI (Shattercane); 250 g/ha alone): 0% | % WEED CONTROL AGRRE Obs (AGRRE (Quackgrass); 250 g/ha alone): 45% | % WEED CONTROL PANMI Obs ([2]; 250 g/ha alone): 60% | % WEED CONTROL SETVI Obs (SETVI (Foxtail, green); 250 g/ha alone): 90% | % WEED CONTROL SETFA Obs (SETFA (Foxtail, giant); 250 g/ha alone): 85% | % WEED CONTROL CASOB Obs (CASOB (Sicklepod); 250 g/ha alone): 40% | % crop injury, corn (observed) (ZEAMX (Corn); 250 g/ha alone): 0%

CCCS(=O)(=O)Oc1c(C(=O)c2ccc3c(c2C)C(C)(C)CS3(=O)=O)cnn1C [DHBT IA, 1-propanesulfonic acid ester of 2,3-dihydro-3,3,4-trimethylbenzo [b]thien-5-yl 5-hydroxy-1-methylpyrazol-4-yl ketone S,S-dioxide]
% WEED CONTROL PANDI Obs (PANDI (Fall panicum); 3.00 g/ha alone): 40% | % WEED CONTROL PANDI Obs (PANDI (Fall panicum); 6.00 g/ha alone): 55% | % WEED CONTROL PANDI Obs (PANDI (Fall panicum); 12.0 g/ha alone): 75% | % WEED CONTROL DIGSA Obs (DIGSA (Crabgrass, large); 3.00 g/ha alone): 50% | % WEED CONTROL DIGSA Obs (DIGSA (Crabgrass, large); 6.00 g/ha alone): 70% | % WEED CONTROL DIGSA Obs (DIGSA (Crabgrass, large); 12.0 g/ha alone): 85% | % WEED CONTROL ERBVI Obs (ERBVI (Cupgrass, woolly); 3.00 g/ha alone): 0% | % WEED CONTROL ERBVI Obs (ERBVI (Cupgrass, woolly); 6.00 g/ha alone): 15% | % WEED CONTROL ERBVI Obs (ERBVI (Cupgrass, woolly); 12.0 g/ha alone): 40% | % WEED CONTROL BRAPP Obs ([1]; 3.00 g/ha alone): 25% | % WEED CONTROL BRAPP Obs ([1]; 6.00 g/ha alone): 55% | % WEED CONTROL BRAPP Obs ([1]; 12.0 g/ha alone): 100% | % WEED CONTROL ECHCG Obs (ECHCG (Barnyardgrass); 3.00 g/ha alone): 45% | % WEED CONTROL ECHCG Obs (ECHCG (Barnyardgrass); 6.00 g/ha alone): 60% | % WEED CONTROL ECHCG Obs (ECHCG (Barnyardgrass); 12.0 g/ha alone): 80% | % WEED CONTROL SORHA Obs (SORHA (Johnsongrass); 3.00 g/ha alone): 35% | % WEED CONTROL SORHA Obs (SORHA (Johnsongrass); 6.00 g/ha alone): 40% | % WEED CONTROL SORHA Obs (SORHA (Johnsongrass); 12.0 g/ha alone): 65% | % WEED CONTROL SORBI Obs (SORBI (Shattercane); 3.00 g/ha alone): 30% | % WEED CONTROL SORBI Obs (SORBI (Shattercane); 6.00 g/ha alone): 35% | % WEED CONTROL SORBI Obs (SORBI (Shattercane); 12.0 g/ha alone): 60% | % WEED CONTROL AGRRE Obs (AGRRE (Quackgrass); 3.00 g/ha alone): 20% | % WEED CONTROL AGRRE Obs (AGRRE (Quackgrass); 6.00 g/ha alone): 30% | % WEED CONTROL AGRRE Obs (AGRRE (Quackgrass); 12.0 g/ha alone): 35% | % WEED CONTROL PANMI Obs ([2]; 3.00 g/ha alone): 40% | % WEED CONTROL PANMI Obs ([2]; 6.00 g/ha alone): 70% | % WEED CONTROL PANMI Obs ([2]; 12.0 g/ha alone): 95% | % WEED CONTROL SETVI Obs (SETVI (Foxtail, green); 3.00 g/ha alone): 35% | % WEED CONTROL SETVI Obs (SETVI (Foxtail, green); 6.00 g/ha alone): 100% | % WEED CONTROL SETVI Obs (SETVI (Foxtail, green); 12.0 g/ha alone): 80% | % WEED CONTROL SETFA Obs (SETFA (Foxtail, giant); 3.00 g/ha alone): 35% | % WEED CONTROL SETFA Obs (SETFA (Foxtail, giant); 6.00 g/ha alone): 55% | % WEED CONTROL SETFA Obs (SETFA (Foxtail, giant); 12.0 g/ha alone): 90% | % WEED CONTROL CASOB Obs (CASOB (Sicklepod); 3.00 g/ha alone): 15% | % WEED CONTROL CASOB Obs (CASOB (Sicklepod); 6.00 g/ha alone): 25% | % WEED CONTROL CASOB Obs (CASOB (Sicklepod); 12.0 g/ha alone): 25% | % crop injury, corn (observed) (ZEAMX (Corn); 3.00 g/ha alone): 0% | % crop injury, corn (observed) (ZEAMX (Corn); 6.00 g/ha alone): 0% | % crop injury, corn (observed) (ZEAMX (Corn); 12.0 g/ha alone): 0%
